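1) Cells in 96-well plates. 2) Compound, 48 h, 5 concentrations. 3) Linear interpolation between surrounding doses. 4) Unreached endpoint = highest concentration. The concentration for 50% growth inhibition is given as GI50.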 Activity calls are given as the source filed them. Cut-off read from the data, not from the text of the source: active = GI50 up to about 1.1 µM and inactive = higher.
Assays:
Experiment in all cases: NCI tumour cell line growth inhibition, 48 h
HCC 2998 = system: HCC 2998
SK-MEL-2 = system: SK-MEL-2
SK-MEL-5 = system: SK-MEL-5
TK-10 = system: TK-10
RPMI-8226 = system: RPMI-8226
ACHN = system: ACHN
HCT-116 = system: HCT-116
MOLT-4 = system: MOLT-4
NCI-H23 = system: NCI-H23
HT-29 = system: HT-29
NCI-H460 = system: NCI-H460
OVCAR-5 = system: OVCAR-5
BT-549 = system: BT-549
EKVX = system: EKVX
PC-3 = system: PC-3
OVCAR-4 = system: OVCAR-4
RXF 393 = system: RXF 393
SF-268 = system: SF-268
U-251 = system: U-251
SK-OV-3 = system: SK-OV-3
NCI-H522 = system: NCI-H522
CAKI-1 = system: CAKI-1
HCT-15 = system: HCT-15
Hs-578T = system: Hs-578T
786-0 = system: 786-0
NCI/ADR-RES = system: NCI/ADR-RES
SNB-19 = system: SNB-19
A549 = system: A549
UACC-62 = system: UACC-62
MDA-MB-231 = system: MDA-MB-231
OVCAR-3 = system: OVCAR-3
MDA-MB-435 = system: MDA-MB-435
HOP-92 = system: HOP-92
SK-MEL-28 = system: SK-MEL-28
MCF7 = system: MCF7
T47D = system: T47D
OVCAR-8 = system: OVCAR-8
SF-295 = system: SF-295
MDA-N = system: MDA-N
UACC-257 = system: UACC-257
COLO 205 = system: COLO 205
SW-620 = system: SW-620
KM12 = system: KM12
IGROV-1 = system: IGROV-1
M14 = system: M14
SNB-75 = system: SNB-75
HOP-62 = system: HOP-62
DU-145 = system: DU-145
UO-31 = system: UO-31
A498 = system: A498
Malme-3M = system: Malme-3M
K562 = system: K562

With `C[C@@H]1OC(=O)C[C@H]2CC(=O)N(CCC3CN(C(=O)OCc4ccccc4)c4ccccc43)C[C@@H]21` (some centres not stated) the GI50 (HCC 2998) was > 100 µM (inactive), the GI50 (SK-MEL-2) was > 100 µM (inactive) and the GI50 (SK-MEL-5) was > 100 µM (inactive). The GI50 (TK-10) was > 100 µM (inactive), the GI50 (RPMI-8226) was > 100 µM (inactive) and the GI50 (ACHN) was > 100 µM (inactive). For the same compound, the GI50 (HCT-116) was > 100 µM (inactive), the GI50 (MOLT-4) was > 100 µM (inactive) and the GI50 (NCI-H23) was > 100 µM (inactive). The GI50 (HT-29) was > 100 µM (inactive), the GI50 (NCI-H460) was > 100 µM (inactive) and the GI50 (OVCAR-5) was > 100 µM (inactive). The GI50 (BT-549) was > 100 µM (inactive), the GI50 (EKVX) was > 100 µM (inactive) and the GI50 (PC-3) was > 100 µM (inactive). The GI50 (OVCAR-4) was > 100 µM (inactive), the GI50 (RXF 393) was > 100 µM (inactive) and the GI50 (SF-268) was > 100 µM (inactive). For the same compound, the GI50 (U-251) was > 100 µM (inactive), the GI50 (SK-OV-3) was > 100 µM (inactive) and the GI50 (NCI-H522) was > 100 µM (inactive). The GI50 (CAKI-1) was > 100 µM (inactive), the GI50 (HCT-15) was over 100 µM and the GI50 (Hs-578T) was > 100 µM (inactive). For the same compound, the GI50 (786-0) was > 100 µM (inactive), the GI50 (NCI/ADR-RES) was > 100 µM (inactive) and the GI50 (SNB-19) was > 100 µM (inactive). For the same compound, the GI50 (A549) was > 100 µM (inactive), the GI50 (UACC-62) was > 100 µM (inactive) and the GI50 (MDA-MB-231) was > 100 µM (inactive). For the same compound, the GI50 (OVCAR-3) was > 100 µM (inactive), the GI50 (MDA-MB-435) was > 100 µM (inactive) and the GI50 (HOP-92) was > 100 µM (inactive). For the same compound, the GI50 (SK-MEL-28) was > 100 µM (inactive), the GI50 (MCF7) was > 100 µM (inactive) and the GI50 (T47D) was > 100 µM (inactive). For the same compound, the GI50 (OVCAR-8) was > 100 µM (inactive), the GI50 (SF-295) was > 100 µM (inactive) and the GI50 (MDA-N) was > 100 µM (inactive). For the same compound, the GI50 (UACC-257) was > 100 µM (inactive), the GI50 (COLO 205) was > 100 µM (inactive) and the GI50 (SW-620) was > 100 µM (inactive). The GI50 (KM12) was > 100 µM (inactive), the GI50 (IGROV-1) was > 100 µM (inactive) and the GI50 (M14) was > 100 µM (inactive). For the same compound, the GI50 (SNB-75) was > 100 µM (inactive), the GI50 (HOP-62) was > 100 µM (inactive) and the GI50 (DU-145) was > 100 µM (inactive). The GI50 (UO-31) was > 100 µM (inactive), the GI50 (A498) was > 100 µM (inactive) and the GI50 (Malme-3M) was > 100 µM (inactive). The GI50 (K562) was > 100 µM (inactive).

From ChEMBL document CHEMBL1201862, “PubChem BioAssay data set” (2004)
